Where a SMILES comes first, the peptide text is derived from it. [ ]: non-standard residue; d: D form. The star is where a group is joined. Nva = CCC[C@H](N)C(=O)O; Cbz = O=C(OCc1ccccc1)*
Test system: Bax degradation activity
Experiment: cell-free Bax (or Bcl-2) degradation assay with extracts of inhibitor-pretreated cells
Format: cell-based, human
Experimental: FIGS. 9A-9F show Bax degradation depends on ubiquitination, proteasome and ATP. (FIG. 9A) Jurkat cells (0 h) were treated with either 50 μM LLnV or 10 μM lactacystin, followed by preparation of Bax immunoprecipitates (with clone 6A7), which were immunoblotted with an ubiquitin antibody. Positions of putative ubiquitinated Bax proteins (p47, p55) are indicated at left. The nature of the ˜30 kDa and ˜84 kDa remains unclear. (FIG. 9B) The [^35S]-labeled Bax (upper) or Bcl-2 (lower) protein (1 μl) were incubated at 37° C. for 2 h with either buffer Z only (lane 1) or […] protein extract of MCF-7 cells grown exponentially (lane 2) or pretreated for 8 h with […] LLnV (lane 3). (FIG. 9C) The [^35S]-labeled Bax protein (1 μl) was incubated with either buffer Z only (lane 1) or 100 μg MCF-7 cell lysate at 37° C. for 4 h, in the presence of an indicated inhibitor (100 mM; lanes 3-8) or an equal volume of DMSO (lane 2) in buffer Z. A weak band of ˜16 kDa (indicated by an arrow) is probably an intermediate product of proteasome-mediated Bax degradation. (FIG. 9D) The proteasome in MCF-7 whole cell lysate (W lys, lane 1) was precipitated by using either ultraspin (ULS) or a proteasome subunit a6 antibody (IP). Both supernatant (lanes 2, 4) and pellet (lanes 3, 5) fractions were examined by Western blot assay using antibody to the proteasome a6 subunit (MW 33 kDa). (FIG. 9E) Bax degradation assay was performed as in FIG. 9B, with addition of buffer Z (lane 1) or 100 μg protein from MCF-7 whole cell lysate (lane 2), ultraspun supernatant (lane 3) or plus the pellet (lane 4), immunodepleted supernatant (lane 5) or plus a purified 20S proteasome ([…]; lane 6), or the purified proteasome alone (2 μg; lane 7). (FIG. 9F) Bax degradation assay was performed as in FIG. 9B, in the absence (lane 3) or presence of 10 mM ATP (lane 2) or 10 mM ATP-y-S (lane 4).
In vitro Bax Degradation Assay: Human Bax-a cDNA subcloned into pcDNA3 was a gift from Dr. Hong-gang Wang. Human full length of bcl-2-a cDNA was cloned from Jurkat T cells and subcloned into pcDNA3.1(−) as described+. Both bax and bcl-2 plasmids were used for coupled in vitro transcription/translation (Promega; Madison, Wis.) in the presence of [^35S]methionine (Amersham Pharmacia Biotech; Piscataway, N.J.). Protein extracts were prepared from either MCF-7 cells or prostate tumor tissues in buffer Y (50 mM Tris-HCl, pH 7.4, 250 mM NaCl, 1% Triton X-100, 0.1% SDS, 1 mM EDTA), and used for Bax (or Bcl-2) degradation assay. […]

[1] = Jurkat T cells pretreated with LLnV (50 µM, 8 hours)

## CCC[C@@H](C=O)NC(=O)[C@H](CC(C)C)NC(=O)[C@H](CC(C)C)NC(=O)OCc1ccccc1 [LLnV] (Cbz-Leu-Leu-[Nva]-aldehyde)
[1]
  Bax degradation activity in the cell extract: inhibited
  levels of labeled Bcl-2 after in vitro incubation: no effects
MCF-7 cells pretreated for 8 h with 50 mM LLnV (FIG. 9B legend)
  cell-free Bax degradation activity: inhibited
Cells pretreated with LLnV
  BDA inhibition, VA-13 compared with MCF-7: a greater inhibition was observed in VA-13 than in MCF-7 cells
